Earlier results on one compound are cited in PMC4059071 (Angewandte Chemie (International ed. in English), 2013).

This data set relates to Akt. To be noted: ref [13].

Take `Cc1n[nH]c2ccc(-c3cncc(OC[C@@H](N)Cc4c[nH]c5ccccc45)c3)cc12` [A-443654]: the “effect on Akt protein activity after inhibitor dissociation” value is recorded as “protein reactivation after inhibitor dissociation”. Besides, the “effect on Akt phosphorylation” value (Thr308 and Ser473 of Akt) was “paradoxical hyperphosphorylation of Akt at both Thr308 and Ser473”.
